Results as given in US20100119483A1, “PEPTIDE VIRAL ENTRY INHIBITORS” (Schering Corporation, priority 2004, published 2010).

Tests used:
[1] = tested on: HCV pseudoparticles; assay: HCV pseudoparticle (HCVpp) entry assay in Huh7 hepatoma cells, luciferase readout; format: cell-based, hepatitis C virus; details: peptide library screen, first screened at 100 ug/ml; cell entry inhibition vs uninhibited control
Method in brief: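 Pseudoparticles carrying HCV E1/E2 on an HIV luciferase backbone were produced in 293T cells; peptide was pre-incubated 1 h at 37 °C with Huh7 cells, then virus added and luciferase read after 72 h. Dose-response used 10-point 3-fold titration from 100 ug/ml; envelope-less particles controlled non-specific entry.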

[2] = tested on: amphotropic murine leukemia virus; assay: AMLV pseudotyped virus entry counter-screen, same infection protocol; format: cell-based; details: peptide library screen; cell entry inhibition vs uninhibited control
Procedure: Infection of hepatoma cell lines with HCV pseudotype particles and screen for inhibitory peptides. The hepatoma cells, Huh7, was seeded at 8000 cells in 90 ul medium in 96-well plate. In the case of the inhibitor screen, the inhibitor was incubated with cells for one hour at 37° C. and then 50 ul viral supernatant was added to the cells 24 hours after seeding. The viral stock was pre-tittered and diluted to yield approximately 10,000 to 20,000 RLU. The cells were incubated at 37° C. with 5% CO2 for additional 72 hours and were harvested for luciferase assay. Peptide stocks were prepared in 100% DMSO at 10 mg/ml and were first screened at 100 ug/ml and then a dose responsive curve was generated with 10 points 3-fold titration starting from 100 ug/ml.
The specificity of the peptides were counter-screened with AMLV and HIV pseudotyped viruses using the same infection protocol.

| Substance | HCVpp % inh [1] [%] | AMLVpp % inh [2] [%] |
| --- | --- | --- |
| L-L-L-A-D-A-R-V-C-A-C-L-W-M-M-L [SEQ ID NO: 79] | 77 | 16 |
| L-P-C-S-F-T-T-L-P-A-L-S-T-G-L-I (LPCSFTTLPALSTGLI; HCV peptide) [SEQ ID NO: 72] | −2 | 20 |
| W-G-V-L-A-G-L-A-Y-Y-S-M-V-G-N-W [SEQ ID NO: 26] | 50 | 27 |
| D-C-F-R-K-H-P-E-A-T-Y-T-K-C-G-S [SEQ ID NO: 59] | 26 | −14 |
| F-L-A-A-L-F-Y-V-H-K-F-N-S-S-G-C [SEQ ID NO: 38] | 23 | −44 |
| E-Y-V-L-L-L-F-L-L-L-A-D-A-R-V-C [SEQ ID NO: 78] | 38 | 34 |
| P-C-G-I-V-P-A-A-Q-V-C-G-P-V-Y-C [SEQ ID NO: 46] | 29 | −2 |
| A-Y-Y-S-W-V-G-N-W-A-K-V-L-I-V-M [SEQ ID NO: 27] | 39 | −2 |
| N-T-L-G-I-T-S-L-F-S-P-G-S-S-Q-K [SEQ ID NO: 32] | 11 | 2 |
| R-F-G-V-P-T-Y-S-W-G-E-N-E-T-D-V [SEQ ID NO: 50] | 34 | 33 |
| T-N-G-S-W-H-I-N-R-T-A-L-N-C-N-D (TNGSWHINRTALNCND; HCV peptide) [SEQ ID NO: 35] | 29 | 30 |
| D-M-V-A-G-A-H-W-G-V-L-A-G-L-A-Y [SEQ ID NO: 25] | 27 | 14 |
| T-C-G-G-P-P-C-N-I-G-G-I-C-N-K-T [SEQ ID NO: 56] | 53 | 22 |
| V-C-A-C-L-W-M-M-L-L-I-A-Q-A-E-A [SEQ ID NO: 80] | 16 | 7 |
| A-Q-V-C-G-P-V-Y-C-F-T-P-S-P-V-V [SEQ ID NO: 47] | 40 | −8 |
| K-T-L-T-C-P-T-D-C-F-R-K-H-P-E-A [SEQ ID NO: 58] | 50 | 13 |
| V-V-V-G-T-T-D-R-F-G-V-P-T-Y-S-W [SEQ ID NO: 49] | 37 | −22 |
